Test results published in patent publication US20120046276A1, “Tuberculosis treatment using pleuromutilin derivatives” (priority 2002, published 2012).
Converted amounts (≈) assume the structure as drawn. “And” between values parts separate entries of the source, which are not always exact repeats. Identical values can stand only once. Like-named read-outs stand apart in the source and are kept apart here.

Assays:
Assay type in all cases: cell-based
[1] = tested on: Mycobacterium tuberculosis strain 12; assay: Agar Dilution Test (MIC), strain 12 (Isoniacid S, Rifampicin S, Streptomycin S)
[2] = tested on: Mycobacterium tuberculosis strain 1; assay: Agar Dilution Test (MIC), strain 1 (Isoniacid S, Rifampicin S, Streptomycin S); details: read-out: MIC against Mycobacterium tuberculosis of strain number 1
[3] = tested on: Mycobacterium tuberculosis strain 15 (labor strain 137 kV); assay: Agar Dilution Test (MIC), strain 15 = labor strain 137 kV (Isoniacid S, Rifampicin S, Streptomycin S)
[4] = tested on: Mycobacterium tuberculosis strain 3; assay: Agar Dilution Test (MIC), strain 3 (Isoniacid R, Rifampicin R, Streptomycin S)
[5] = tested on: Mycobacterium tuberculosis strain 6; assay: Agar Dilution Test (MIC), strain 6 (Isoniacid S, Rifampicin S, Streptomycin S)
[6] = tested on: Mycobacterium tuberculosis strain 7; assay: Agar Dilution Test (MIC), strain 7 (Isoniacid R, Rifampicin S, Streptomycin R)
[7] = tested on: Mycobacterium tuberculosis strain 4; assay: Agar Dilution Test (MIC), strain 4 (Isoniacid R, Rifampicin R, Streptomycin R)
[8] = tested on: Mycobacterium tuberculosis strain 2; assay: Agar Dilution Test (MIC), strain 2 (Isoniacid S, Rifampicin S, Streptomycin S)
[9] = tested on: Mycobacterium tuberculosis strain 11; assay: Agar Dilution Test (MIC), strain 11 (Isoniacid S, Rifampicin S, Streptomycin S)
[10] = tested on: Mycobacterium tuberculosis strain 10; assay: Agar Dilution Test (MIC), strain 10 (Isoniacid S, Rifampicin S, Streptomycin S)
[11] = tested on: Mycobacterium tuberculosis strain 5; assay: Agar Dilution Test (MIC), strain 5 (Isoniacid R, Rifampicin R, Streptomycin S)
[12] = tested on: Mycobacterium tuberculosis strain 14; assay: Agar Dilution Test (MIC), strain 14 (Isoniacid S, Rifampicin S, Streptomycin S)
[13] = tested on: Mycobacterium tuberculosis strain 8; assay: Agar Dilution Test (MIC), strain 8 (Isoniacid S, Rifampicin R, Streptomycin S)
[14] = tested on: Mycobacterium tuberculosis strain 13; assay: Agar Dilution Test (MIC), strain 13 (Isoniacid S, Rifampicin S, Streptomycin S)
[15] = Mycobacterium tuberculosis, 1, 168 h
[16] = Mycobacterium tuberculosis, 1, 504 h
[17] = Mycobacterium tuberculosis, 1, 672 h
[18] = Mycobacterium tuberculosis, 1, 840 h
[19] = TABLE C; week 4*) tested after 31 days
[20] = TABLE D; week 4*) tested after 31 days
[21] = Mycobacterium tuberculosis, 1, 336 h

Compound	MIC against Mycobacterium tuberculosis of strain number 12 [1]	MIC [2, 15]	MIC against Mycobacterium tuberculosis of strain number 15 [3]	MIC against Mycobacterium tuberculosis of strain number 3 [4]	MIC against Mycobacterium tuberculosis of strain number 6 [5]	MIC [2, 16]	MIC [2, 17]	MIC [2, 18]	MIC against Mycobacterium tuberculosis of strain number 7 [6]	MIC against Mycobacterium tuberculosis of strain number 4 [7]	MIC against Mycobacterium tuberculosis of strain number 2 [8]	also measured
C=C[C@]1(C)C[C@@H](OC(=O)CSC(C)(C)C(N)C(=O)N2CCN(C)CC2)[C@]2(C)C(C)CCC3(CCC(=O)C32)[C@@H](C)C1O (stereo partly drawn) [TC-8]	32 µg/mL	2 µg/mL (≈ 3.38 µM)	32 µg/mL									
C=C[C@]1(C)C[C@@H](OC(=O)CSc2cccc(NC(=O)C(N)CCCNC(=N)N)c2)[C@]2(C)C(C)CCC3(CCC(=O)C32)[C@@H](C)C1O (stereo partly drawn) [TC-5]				5 µg/mL	5 µg/mL and 10 µg/mL	1 µg/mL (≈ 1.56 µM)	5 µg/mL (≈ 7.79 µM)	5 µg/mL (≈ 7.79 µM)	5 µg/mL and 10 µg/mL	5 µg/mL and 10 µg/mL	5 µg/mL	
C=C[C@]1(C)C[C@@H](OC(=O)CSC(C)(C)CNC(=O)[C@H](N)C(C)C)[C@]2(C)[C@H](C)CC[C@]3(CCC(=O)[C@H]32)[C@@H](C)[C@@H]1O [TC-2, Valnemulin]	4 µg/mL		2 µg/mL		5 µg/mL and 4 µg/mL	0.5 µg/mL (≈ 0.885 µM)	0.5 µg/mL (≈ 0.885 µM)	0.5 µg/mL (≈ 0.885 µM)		5 µg/mL and 8 µg/mL		MIC against Mycobacterium tuberculosis of strain number 3 [4, 19]: 2 µg/mL; MIC against Mycobacterium tuberculosis of strain number 11 [9]: 2 µg/mL; MIC against Mycobacterium tuberculosis of strain number 11 [9, 20]: 4 µg/mL; MIC against Mycobacterium tuberculosis of strain number 10 [10]: 4 µg/mL; MIC against Mycobacterium tuberculosis of strain number 10 [10, 20]: 4 µg/mL; MIC against Mycobacterium tuberculosis of strain number 5 [11]: 2 µg/mL; MIC against Mycobacterium tuberculosis of strain number 5 [11, 19]: 4 µg/mL; MIC against Mycobacterium tuberculosis of strain number 6 [5, 19]: 4 µg/mL; MIC against Mycobacterium tuberculosis of strain number 12 [1, 20]: 4 µg/mL; MIC ([2]; Mycobacterium tuberculosis, 1, 744 h, TABLE C; week 4*) tested after 31 days): 0.5 µg/mL (≈ 0.885 µM); MIC against Mycobacterium tuberculosis of strain number 7 [6, 19]: 8 µg/mL; MIC against Mycobacterium tuberculosis of strain number 4 [7, 19]: 8 µg/mL; MIC against Mycobacterium tuberculosis of strain number 14 [12]: 4 µg/mL; MIC against Mycobacterium tuberculosis of strain number 14 [12, 20]: 4 µg/mL; MIC against Mycobacterium tuberculosis of strain number 15 [3, 20]: 4 µg/mL; MIC against Mycobacterium tuberculosis of strain number 8 [13]: 4 µg/mL; MIC against Mycobacterium tuberculosis of strain number 8 [13, 19]: 8 µg/mL; MIC against Mycobacterium tuberculosis of strain number 13 [14]: 4 µg/mL; MIC against Mycobacterium tuberculosis of strain number 13 [14, 20]: 8 µg/mL; MIC against Mycobacterium tuberculosis of strain number 2 [8, 19]: 4 µg/mL
C=C[C@]1(C)C[C@@H](OC(=O)CSC2CCCC(=NO)C2)[C@]2(C)C(C)CCC3(CCC(=O)C32)[C@@H](C)C1O (stereo partly drawn) [TC-9]	32 µg/mL	8 µg/mL (≈ 15.8 µM)	32 µg/mL									
C=C[C@]1(C)C[C@@H](OC(=O)CSC2CCNCC2O)[C@]2(C)C(C)CCC3(CCC(=O)C32)[C@@H](C)C1O (stereo partly drawn) [TC-10]	16 µg/mL		4 µg/mL									MIC [2, 21]: 2 µg/mL (≈ 4.05 µM)
C=C[C@]1(C)C[C@@H](OC(=O)CSCCN(CC)CC)[C@]2(C)C(C)CC[C@]3(CCC(=O)C32)[C@@H](C)[C@@H]1O (stereo partly drawn) [TC-1, 14-Desoxy-14[(2-diethylaminoethyl)mercaptoacetoxy]mutilin]				5 µg/mL	10 µg/mL	5 µg/mL (≈ 10.1 µM)	5 µg/mL (≈ 10.1 µM)	5 µg/mL (≈ 10.1 µM)	10 µg/mL and 20 µg/mL	5 µg/mL and 10 µg/mL	5 µg/mL	
C=C[C@]1(C)C[C@@H](OC(=O)CSC(C)(C)C(N)C(=O)NC)[C@]2(C)C(C)CCC3(CCC(=O)C32)[C@@H](C)C1O (stereo partly drawn) [TC-7]	32 µg/mL	2 µg/mL (≈ 3.83 µM)	32 µg/mL									
C=C[C@]1(C)C[C@@H](OC(=O)CSc2cccc(NC(=N)N)c2)[C@]2(C)C(C)CCC3(CCC(=O)C32)[C@@H](C)C1O (stereo partly drawn) [TC-6]	1 µg/mL		0.5 µg/mL									MIC [2, 21]: 1 µg/mL (≈ 1.89 µM)
C=C[C@]1(C)C[C@@H](OC(=O)CSc2cccc(NC(=O)C3CCCCN3)c2)[C@]2(C)C(C)CCC3(CCC(=O)C32)[C@@H](C)C1O (stereo partly drawn) [TC-3]				5 µg/mL	5 µg/mL and 10 µg/mL	1 µg/mL (≈ 1.68 µM)	1 µg/mL (≈ 1.68 µM)	1 µg/mL (≈ 1.68 µM)	20 µg/mL		5 µg/mL	
C=C[C@]1(C)C[C@@H](OC(=O)CSC2CCCN(C(=O)C(N)C(C)C)C2)[C@]2(C)C(C)CCC3(CCC(=O)C32)[C@@H](C)C1O (stereo partly drawn) [TC-4]	4 µg/mL and 2 µg/mL		4 µg/mL and 2 µg/mL		5 µg/mL and 4 µg/mL	0.5 µg/mL (≈ 0.867 µM)	1 µg/mL (≈ 1.73 µM)	1 µg/mL (≈ 1.73 µM)			5 µg/mL and 4 µg/mL	MIC against Mycobacterium tuberculosis of strain number 11 [9]: 2 µg/mL; MIC against Mycobacterium tuberculosis of strain number 10 [10]: 4 µg/mL and 2 µg/mL; MIC against Mycobacterium tuberculosis of strain number 5 [11]: 2 µg/mL; MIC against Mycobacterium tuberculosis of strain number 14 [12]: 4 µg/mL; MIC against Mycobacterium tuberculosis of strain number 8 [13]: 4 µg/mL and 2 µg/mL; MIC against Mycobacterium tuberculosis of strain number 13 [14]: 4 µg/mL and 2 µg/mL
